Values quoted from earlier work in article PMC4123439 (Bioorganic & medicinal chemistry, 2009).

System: Tdp1
Conditions: at concentrations of up to 1 mM

Q: For `COS(=O)(=O)c1ccc(C)cc1` [methyl p-toluene sulfonate], which Tdp1 inhibitory activity is on record?
A: inactive
